Earlier results, collected in patent publication US11629364B2, “Methods for synthesizing anticoagulant polysaccharides” (OPTIMVIA, LLC, priority 2019, dated 2023).

Settings: pH 8.0

Nc1ncnc2c1ncn2[C@@H]1O[C@H](COP(=O)(O)OS(=O)(=O)O)[C@@H](OP(=O)(O)O)[C@H]1O [PAPS, 3′-phosphoadenosine 5′-phosphosulfate]
half-life of PAPS: about 20 hours
